The values that follow come from patent US20250064886A1, “CARDIOVASCULAR AND CEREBROVASCULAR DRUG AND USE THEREOF” (HANGZHOU ADAMERCK PHARMLABS INC., priority 2021, published 2025).

Marks after values point to notes of the source that are not given here.

Data set [1] relates to rats with focal cerebral ischemia (MCAO)/reperfusion. The data set can be described thus: Therapeutic administration, cerebral ischemia-reperfusion injury MCAO/R in rats (Example 7). It is filed as in vivo, rat. The settings on record: 6 mg/kg i.v. once 1 h after reperfusion. As for the experimental part: Experimental method: SD rats were randomly divided into 11 groups, including pseudosurgery group, a model control group, positive control drug edaravone via intravenous injection (6 mg/kg, i.v.) group, positive control drug butylphthalide injection via intravenous injection (5 mg/kg, i.v.) group, compound (1) high-dose (24 mg/kg, i.v.), medium-dose (12 mg/kg, i.v.), low-dose (6 mg/kg, i.v.) via intravenous injection group, positive drug butylphthalide soft capsule via intragastric administration (60 mg/kg, i.g.) group, and compound via intragastric administration at (1) high-dose (60 mg/kg, i.g.), medium-dose (30 mg/kg, i.g.), low-dose (15 mg/kg, i.g.) group. A middle cerebral artery occlusion (MCAO) model for cerebral ischemia-reperfusion of male rats was prepared using the internal carotid suture-occluded method with an ischemic time of 90 min followed by reperfusion. Injection and oral administration for once were performed 1 h after reperfusion, and neurobehavioral scoring was performed on rats after 24 h to determine neurological function in rats; the cerebral infarction rate and cerebral water content of rats were determined by 2,3,5-triphenyltetrazolium chloride (TTC) staining.

Data set [2] deals with vascular endothelial injury induced thrombosis model in zebrafish. Briefly: Preventative effect on vascular endothelial injury induced thrombosis, ponatinib zebrafish model (Example 1). It is filed as in vivo. The conditions noted are these: 4.00 ng/tail injected. As for the experimental part: Experimental method: 420 tails of 5 dpf wild type AB strain zebrafish were randomly selected and placed in a six-well plate, with 30 fish per well (experimental group). The fish were injected with compound (1), compound (2), compound (3), compound (4), compound (5), compound (6), compound (7), compound (8), compound (9), compound (10), and compound (11) (structural formula shown in Table 1) at a dose of 4.00 ng/tail, with positive control drug acetylsalicylic acid being administered by dissolving it in water at a concentration of 30.0 µg/mL. Normal control group (i.e. zebrafish treated with standard diluted water) and model control group were set up, with a capacity of 3 mL per well (experimental group). Except for normal control group, the remaining experimental groups were all given Punatinib by dissolving it in water to induce vascular endothelial injury induced thrombosis model in zebrafish. The zebrafish were stained with o-dianisidine after co-treatment with ponatinib and samples for a period of time under incubation conditions at 28° C.
After staining, 10 zebrafish in each group were randomly selected and photographed under the microscope, and the intensity of cardiac erythrocyte staining in zebrafish was analyzed using NIS-Elements D 3.20 advanced image-processing software, and the samples were evaluated for the preventative effect on vascular endothelial injury induced thrombosis by the statistical results of cardiac erythrocyte staining intensity.
The preventative effect on thrombosis is calculated as follows: […]
Statistical analysis was performed using SPSS software, and p<0.05 indicates significant differences

For data set [3], the system named is vascular inflammation in high-glucose and high-fat zebrafish. Briefly: Regressive effect on vascular inflammation in high-glucose and high-fat zebrafish (Example 9). It is filed as in vivo. As for the experimental part:
Experimental method: 360 tails of 5 dpf macrophage fluorescent zebrafish were randomly selected and placed in beakers with 30 tails in each beaker, compound (1), compound (3), and compound (5) were given intravenously, and the positive control group was given atorvastatin calcium by dissolving it in water at a concentration of 30 μg/mL, while the normal control group (fish farming water-treated zebrafish) and the model control group were set up, and the volume of each beaker (experimental group) was 25 mL. Except for the normal control group, all other groups were given high-lipids and high-sucrose feed by dissolving it in water. Compound (1), compound (3) and compound (5) group were co-treated with high-lipids and high-sucrose feed for 30 h. The treatment was carried out up to 9 dpf, and 10 zebrafish were randomly selected from each experimental group to collect the intensity of the macrophage fluorescence within the tail vein and around the tail vein of the zebrafish under fluorescence microscope, and the results of the statistical analysis were used to evaluate the regressive effect of compound (1), compound (3), compound (5) on zebrafish vascular inflammation in the high sugar and high fat model.

Data set [4] has as its system iron content in Erastin-induced neuronal cells. The data set can be described thus: Iron content (PGSK probe) in Erastin-induced neuronal cells (Example 8). It is filed as cell-based, rat. The settings on record: Erastin 50 μM. As for the experimental part:
(§1) Experimental method: Primary neuron cells were incubated in a medium containing Erastin (final concentration of 50 μM) for 24 hours, and then incubated in a medium containing different concentrations of the test drug and Erastin (final concentration of 50 μM) for another 24 hours. After incubation, Real time PCR was used to detect mRNA expression of GPX4 in each group of cells, CCK8 assay was used to detect cell viability in each group of cells, C11-BODIPY probe method was used to detect intracellular lipid ROS levels in each group of cells, and PGSK probe method was used to detect iron content in cells.
(§2) The experimental data were expressed in means±SD, and statistical differences between groups were determined using one-way ANOVA and Tukey's test, with p-values less than 0.05 considered significant.
After incubation, the PGSK probe method was used to detect the intracellular iron content. The results were presented as Mean±SD. Compared with the control group, ***p<0.0001; Compared with the model group, #p<0.05, ##p<0.01.

Data set [5] has as its system Erastin-induced neuronal cells. The data set can be described thus: Cell viability (CCK8) of Erastin-induced neuronal cells (Example 8). It is filed as cell-based, rat. The settings on record: for Cell viability (%): Erastin 50 μM. As to the method: as §1, §2
After incubation, the CCK8 experiment was used to detect the cell viability of each group of cells. The results were presented as Mean±SD. Compared with control group, ***p<0.0001. Compared with model control group, ^#P<0.05, ^##P<0.01.

The subject of a further data set is GPX4 mRNA. The data set can be described thus: GPX4 mRNA expression (real time PCR) in Erastin-induced neuronal cells (Example 8). It is filed as cell-based, rat. The settings on record: Erastin 50 μM. As for the experimental part: as §1, §2
After incubation, real time PCR was used to detect the mRNA expression of GPX4 in each group of cells. The results were presented as Mean±SD. Compared with the control group, ***p<0.0001; Compared with the model group, #p<0.05, […].
Background: Real-time PCR tracks product formation cycle by cycle.

Data set [6] concerns lipid ROS levels in Erastin-induced nerve cells. Briefly: Lipid ROS levels (C11-BODIPY probe) in Erastin-induced nerve cells (Example 8). It is filed as cell-based, rat. The settings on record: Erastin 50 μM. As for the experimental part: as §1, §2
After incubation, the C11-BODIPY probe method was used to detect the lipid ROS levels in each group of cells. The results were presented as Mean±SD. Compared with the control group, ***p<0.0001; compared with the model group, #p<0.05, ##p<0.01.

Regarding `CC1=NN(c2ccccc2)C(=O)C1` [Edaravone, edaravone, reference compound], in data set [1], the Behavioral score was determined as 1.62 ± 0.51 and the “Cerebral water content (%)” value was 79.81 ± 1.03 %. The “Cerebral infarction rate (%)” value in data set [1] (after 24 h, mean ± SD, n = 8) is 10.23 ± 7.87 %.
Regarding `O=S(=O)(O)CCCCOCC1OC2OC3C(COCCCCS(=O)(=O)O)OC(OC4C(COCCCCS(=O)(=O)O)OC(OC5C(COCCCCS(=O)(=O)O)OC(OC6C(COCCCCS(=O)(=O)O)OC(OC7C(COCCCCS(=O)(=O)O)OC(OC8C(COCCCCS(=O)(=O)O)OC(OC1C(O)C2O)C(O)C8O)C(O)C7O)C(O)C6O)C(O)C5O)C(O)C4O)C(O)C3O` (stereo not drawn) [Compound (11)], the “Preventative effect on thrombosis (%)” value in data set [2] came to 79%. The “Cardiac erythrocyte staining intensity (pixels, mean ± SE)” value is 4749 ± 12 pixels in data set [2] (n = 10) and 4749 pixels in data set [2] (n = 10, listed as compound (11)).
For `CC(C)c1c(C(=O)Nc2ccccc2)c(-c2ccccc2)c(-c2ccc(F)cc2)n1CC[C@@H](O)C[C@@H](O)CC(=O)[O-].CC(C)c1c(C(=O)Nc2ccccc2)c(-c2ccccc2)c(-c2ccc(F)cc2)n1CC[C@@H](O)C[C@@H](O)CC(=O)[O-].[Ca+2]` [Atorvastatin calcium, atorvastatin calcium, reference compound], the “Anti-inflammatory effect (%)” value in data set [3] (30 μg/mL in water) is listed as 42*** %. Also, in data set [3] (30 μg/mL in water, n = 10), the “Fluorescence intensity of perivascular macrophage (pixels, Mean ± SE)” value is 106352 ± 6663 pixels.
On to `CC(=O)N[C@H](CSCC1OC2OC3C(CSC[C@@H](NC(C)=O)C(=O)[O-])OC(OC4C(CSC[C@@H](NC(C)=O)C(=O)[O-])OC(OC5C(CSC[C@@H](NC(C)=O)C(=O)[O-])OC(OC6C(CSC[C@@H](NC(C)=O)C(=O)[O-])OC(OC7C(CSC[C@@H](NC(C)=O)C(=O)[O-])OC(OC1C(O)C2O)C(O)C7O)C(O)C6O)C(O)C5O)C(O)C4O)C(O)C3O)C(=O)[O-].[Na+].[Na+].[Na+].[Na+].[Na+].[Na+]` (stereo partly drawn) [Compound (3)], for which the “Preventative effect on thrombosis (%)” value in data set [2] is listed as 17%. Further, the “Cardiac erythrocyte staining intensity (pixels, mean ± SE)” value in data set [2] (n = 10) is reported as 3045 ± 219 pixels; in data set [2] (n = 10, listed as compound (3)), 3045 pixels. The “Iron content (PGSK probe)” value in data set [4] (1 μM, control = 100, PGSK fluorescence, weaker = more iron) was 56.48 ± 3.32^; in data set [4] (2.5 μM) it was 62.3 ± 7; in data set [4] (5 μM), 67.06 ± 11.62; in data set [4] (10 μM), 71.61 ± 9.86^; in data set [4] (20 μM) it was 76.67 ± 7.25^#; in data set [4] (40 μM), 83.81 ± 9.91^##. Besides, the “Anti-inflammatory effect (%)” value in data set [3] (11.1 ng/tail intravenous) was 38*** %; in data set [3] (33.3 ng/tail intravenous) it was 36*** %; in data set [3] (100 ng/tail intravenous), 36*** %. In addition, the “Fluorescence intensity of perivascular macrophage (pixels, Mean ± SE)” value in data set [3] (11.1 ng/tail intravenous) is given as 113809 ± 7995 pixels; in data set [3] (33.3 ng/tail intravenous) it was 118747 ± 6434 pixels; in data set [3] (100 ng/tail intravenous), 118504 ± 10539 pixels. In addition, the “Cell viability (%)” value in data set [5] (1 μM, 24 h, control = 100, Mean±SD) is recorded as 52.87 ± 2.55%; in data set [5] (2.5 μM), 56.6 ± 4.76%; in data set [5] (5 μM) it was 62.52 ± 8.51%; in data set [5] (10 μM), 66.77 ± 6.27%; in data set [5] (20 μM) it was 73.21 ± 8.1^# %; in data set [5] (40 μM) it was 77.95 ± 6.34^## %. The “Concentration above which cell viability was significantly increased compared with the model group” value in data set [5] (p<0.05) is reported as “greater than 10 μM”. In addition, the “Expression of GPX4 mRNA” value in the data set with GPX4 mRNA (1 μM, control about 1.00, Mean±SD) was 0.4359 ± 0.05; in the data set with GPX4 mRNA (2.5 μM) it was 0.4875 ± 0.01; in the data set with GPX4 mRNA (5 μM), 0.5407 ± 0.06; with GPX4 mRNA (10 μM), 0.6152 ± 0.07^##; with GPX4 mRNA (20 μM) it was 0.6765 ± 0.07^##; with GPX4 mRNA (40 μM), 0.7421 ± 0.08^##. The “Lipid ROS levels (%)” value is listed as 146.56 ± 7.67% in data set [6] (1 μM, control = 100, Mean±SD); 141.34 ± 4.22% in data set [6] (2.5 μM); 136.81 ± 7.9% in data set [6] (5 μM); 132.38 ± 2.23% in data set [6] (10 μM); 125.33 ± 9.79^# % in data set [6] (20 μM); 120.37 ± 10.16^## % in data set [6] (40 μM).
